Laboratory results taken from patent US20260185025A1, “MICROPHYSIOLOGICAL PLATFORM WITH EMBEDDED ELECTRODES FOR 3D TISSUE CULTURE” (VALO HEALTH, INC., priority 2020, published 2026).

System: human engineered cardiac tissues (human iPSC derived cardiomyocytes co-cultured with human cardiac fibroblasts)
Assay: Drug testing of engineered cardiac tissues in Biowire II 96-well plate under electrical pacing (contractile dynamics by wire displacement)
Format: cell-based
Details: day 19 tissues, n=2 (FIG. 7H)
Procedure: To generate cardiac tissues, human iPSC derived cardiomyocytes co-cultured with human cardiac fibroblasts were seeded with hydrogel in the 96-well plate device. Tissue compaction in the first seven days was observed (FIG. 7A, FIG. 7B), with dramatic change in the first two days followed by stabilization after day 3. Electrical field stimulation of cardiac tissues was initiated at day 7 and continued for the additional 12 days. […] Thapsigargin (50×10^-6 m), an inhibitor of sarcoplasmic reticulum function in cardiomyocytes, was added in the presence of electrical pacing (1.5 Hz), resulting in a prolonged tissue contraction and relaxation time (FIG. 7H). […] Predominantly ventricular cardiomyocytes (CMs) were derived from the hiPSC line BJ1D, using monolayer differentiation protocols as previously described. At day 21 of differentiation, cardiomyocytes were disassociated into single cells with previously established methods. Briefly, 1 mg mL^-1 of collagenase type II (Worthington, LS004205) in Hank's Balanced Salt Solution was added to the monolayer cardiomyocyte cultures and incubated overnight at room temperature. The disassociated cells were mixed with cardiac fibroblasts (Lonza, NHCF-V) in a 10:1 cell number ratio. The mixed cells were pelleted and remixed in collagen hydrogel at 5.5×10^7 cells mL^-1. The cell-gel mixture was seeded at […] per microwell. A droplet of media was placed on the wall of the well to keep the moisture until gelation was complete. The plate was incubated at 37° C. and 5% CO2 for 10 min followed by media addition. […] Average tissue width and width of the tissue (Tw), attachment site to the polymer sensor were measured using bright field images at the relaxed state. Passive displacement of polymer sensors was assessed in blue channel. […] The final readouts for the total and passive forces were interpolated according to the Tw and custom tip sizes. […] With built-in force sensor and electrodes, tissues were able to be assessed in situ in terms of their contractile dynamics and drug responses. […] The videos were analyzed using the custom MATLAB software. […]

[1] = 50×10^−6 m, electrical pacing 1.5 Hz, video 15 min after addition

For `C/C=C(/C)C(=O)O[C@H]1C(C)=C2[C@H]([C@@H]1OC(=O)CCCCCCC)[C@@](C)(OC(C)=O)C[C@H](OC(=O)CCC)[C@@]1(O)[C@H]2OC(=O)[C@@]1(C)O` [Thapsigargin], the tissue contraction time [1] was “prolonged”, the tissue relaxation time [1] was “prolonged” and the “frequency of tissue beating” value (thapsigargin 50 µM, constant stimulation frequency 1.5 Hz) was “decreased by half”.
